Molecular target: T1, NS3 genotype 1b protease (Hepatitis C virus genotype 1b, UniProt Q9WMX2, E1202G)
T1 construct: Purified NS3 protease domain (amino acids 1-181) of the genotype 1b and 3a virus were generated as above; K3 hexahistidine tag (N); rTEV protease cleavage site (N); made in house; host or cells: E. coli BL21AI, pET28 vector p28-N6H-Tev-NS3(181)1b
Assay: Ki determination, NS3 protease genotype 1b (fluorogenic depsipeptide substrate)
Assay type: biochemical
Summary of the method: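 The His-tagged HCV NS3 protease domain (residues 1-181, genotype 1b con-1) was expressed in E. coli, and 50 pM enzyme with 20 μM NS4A peptide was used. Inhibitor (100 nM to 5 pM, 3-fold steps) was pre-incubated 1 h at room temperature in 50 mM HEPES, 40% glycerol, 0.05% Triton X-100, 10 mM DTT, 10% DMSO. The reaction was started with 4 μM fluorogenic substrate, and fluorescence (ex 340/em 490 nm) was read every 30 s between 90 and 120 min. Ki^app came from fitting rates with the Morrison equation.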

COc1ccc2nc3c(nc2c1)O[C@H]1CN(C(=O)[C@H](C(C)(C)C)NC(=O)O[C@@H]2C[C@H]2CCCCC3F)[C@H](C(=O)N[C@]2(C(=O)NS(=O)(=O)C3(C)CC3)C[C@H]2C(F)F)[C@@H]1C (stereo partly drawn) [Example 47, (1aR,5S,8S,9S,10R,22aR)-5-tert-butyl-N-[(1R,2R)-2-(difluoromethyl)-1-{[(1-methylcyclopropyl)sulfonyl]carbamoyl}cyclopropyl]-18-fluoro-14-methoxy-9-methyl-3,6-dioxo-1,1a,3,4,5,6,9,10,18,19,20,21,22,22a-tetradecahydro-8H-7,10-methanocyclopropa[18,19][1,10,3,6]dioxadiazacyclononadecino[11,12-b]quinoxaline-8-carboxamide]
Ki: 0.07 nM

— patent US20150175655A1 (priority 2012, published 2015)
